The target of one data set is T1, 5'-nucleotidase (Mus musculus, UniProt Q61503).
T1 sequence (Q61503 whole entry): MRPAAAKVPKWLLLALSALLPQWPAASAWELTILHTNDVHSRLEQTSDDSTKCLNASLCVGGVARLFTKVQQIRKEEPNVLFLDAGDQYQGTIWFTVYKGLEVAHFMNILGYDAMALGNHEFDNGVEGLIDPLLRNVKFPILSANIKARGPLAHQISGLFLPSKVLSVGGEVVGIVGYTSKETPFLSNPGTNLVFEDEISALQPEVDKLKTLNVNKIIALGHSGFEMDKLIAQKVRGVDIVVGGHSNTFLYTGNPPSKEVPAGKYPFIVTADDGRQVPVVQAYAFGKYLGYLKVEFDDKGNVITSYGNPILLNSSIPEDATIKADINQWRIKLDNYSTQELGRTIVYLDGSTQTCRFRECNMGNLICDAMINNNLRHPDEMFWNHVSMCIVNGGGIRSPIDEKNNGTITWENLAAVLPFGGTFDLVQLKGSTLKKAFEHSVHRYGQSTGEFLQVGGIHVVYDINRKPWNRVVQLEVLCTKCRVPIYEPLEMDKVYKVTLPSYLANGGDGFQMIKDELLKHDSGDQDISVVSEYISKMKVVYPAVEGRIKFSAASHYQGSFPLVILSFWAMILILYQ
In words: Inhibition of CD73 in mouse CD8-positive T cells using AMP as substrate preincubated for 60 mins followed by substrate addition and measured after 2.5 hrs by PiColorLock gold reagent based colorimetric assay. The format is cell-based, CD8-positive T cell.

The target in data set [1] is T2, Ectonucleoside triphosphate diphosphohydrolase 2 (Homo sapiens, UniProt Q9Y5L3).
T2 sequence (Q9Y5L3 whole entry): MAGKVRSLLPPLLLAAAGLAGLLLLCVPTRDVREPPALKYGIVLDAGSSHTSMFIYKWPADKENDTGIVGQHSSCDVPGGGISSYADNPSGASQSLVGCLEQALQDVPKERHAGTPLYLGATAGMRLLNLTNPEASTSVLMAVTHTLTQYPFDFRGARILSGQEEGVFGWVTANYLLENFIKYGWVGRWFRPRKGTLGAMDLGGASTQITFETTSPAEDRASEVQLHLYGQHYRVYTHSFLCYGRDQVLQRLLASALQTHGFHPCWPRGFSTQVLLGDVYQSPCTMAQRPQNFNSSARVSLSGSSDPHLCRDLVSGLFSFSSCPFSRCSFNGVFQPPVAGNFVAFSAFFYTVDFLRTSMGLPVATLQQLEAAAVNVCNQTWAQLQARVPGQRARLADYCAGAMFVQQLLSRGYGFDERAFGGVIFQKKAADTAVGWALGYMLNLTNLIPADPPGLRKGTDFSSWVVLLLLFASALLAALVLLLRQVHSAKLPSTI
Description: Inhibition of NTPDase 2 (unknown origin) expressed in CHO cells using ATP as substrate preincubated for 1 hr followed by substrate addition and measured after 50 mins by PiColorLock gold reagent based colorimetric assay. The format is cell-based.

Data set [2] has as its target T3, Ectonucleoside triphosphate diphosphohydrolase 3 (Homo sapiens, UniProt O75355).
T3 sequence (O75355 whole entry): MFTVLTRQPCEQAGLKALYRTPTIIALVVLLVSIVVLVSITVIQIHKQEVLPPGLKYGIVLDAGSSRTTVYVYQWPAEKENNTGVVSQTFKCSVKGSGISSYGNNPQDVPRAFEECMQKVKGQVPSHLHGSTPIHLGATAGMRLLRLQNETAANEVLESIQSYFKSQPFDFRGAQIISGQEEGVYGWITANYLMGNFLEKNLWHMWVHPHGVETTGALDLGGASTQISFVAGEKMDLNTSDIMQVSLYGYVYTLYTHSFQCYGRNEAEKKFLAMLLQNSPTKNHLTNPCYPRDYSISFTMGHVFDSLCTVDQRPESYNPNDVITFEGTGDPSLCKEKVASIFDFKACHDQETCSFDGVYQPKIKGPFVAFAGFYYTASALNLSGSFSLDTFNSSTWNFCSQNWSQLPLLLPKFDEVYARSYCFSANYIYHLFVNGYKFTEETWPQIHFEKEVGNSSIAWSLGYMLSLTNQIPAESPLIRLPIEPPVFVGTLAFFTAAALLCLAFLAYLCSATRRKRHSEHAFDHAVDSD
In words: Inhibition of NTPDase 3 (unknown origin) expressed in CHO cells using ATP as substrate preincubated for 1 hr followed by substrate addition and measured after 50 mins by PiColorLock gold reagent based colorimetric assay. The class given is cell-based.

Data set [3] addresses T4, Ectonucleoside triphosphate diphosphohydrolase 8 (Homo sapiens, UniProt Q5MY95).
T4 sequence (Q5MY95 whole entry): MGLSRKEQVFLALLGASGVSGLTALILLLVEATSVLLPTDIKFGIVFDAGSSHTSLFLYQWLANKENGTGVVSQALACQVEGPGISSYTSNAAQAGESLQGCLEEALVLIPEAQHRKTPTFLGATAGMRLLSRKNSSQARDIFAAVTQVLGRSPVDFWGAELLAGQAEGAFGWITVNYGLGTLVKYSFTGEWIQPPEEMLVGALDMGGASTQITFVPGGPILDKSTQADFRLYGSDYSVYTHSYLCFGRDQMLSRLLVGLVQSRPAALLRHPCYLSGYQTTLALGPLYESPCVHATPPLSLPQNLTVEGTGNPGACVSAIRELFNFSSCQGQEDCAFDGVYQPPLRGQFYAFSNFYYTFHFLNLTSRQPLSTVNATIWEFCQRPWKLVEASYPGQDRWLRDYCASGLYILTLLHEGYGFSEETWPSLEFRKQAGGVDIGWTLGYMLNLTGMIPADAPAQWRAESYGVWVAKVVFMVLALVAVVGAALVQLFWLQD
In words: Inhibition of NTPDase 8 (unknown origin) expressed in CHO cells using ATP as substrate preincubated for 1 hr followed by substrate addition and measured after 50 mins by PiColorLock gold reagent based colorimetric assay. The class given is cell-based.

Data set [4] in a line: Clearance in mouse at 0.5 mg/kg, iv. The format is ADME, organism-based. The note with it: in vivo.
The nature of data set [5]: Volume of distribution at steady state in mouse at 0.5 mg/kg, iv. The format is ADME, organism-based. The note with it: in vivo, read-out: Vdss.
Data set [6] can be described thus: Half life in mouse at 0.5 mg/kg, iv. The format is ADME, organism-based. The note with it: in vivo.
Data set [7] can be described thus: Half life in Sprague-Dawley rat at 0.5 mg/kg, iv. The note with it: in vivo. The format is ADME, organism-based.
The nature of data set [8]: Fraction unbound in Sprague-Dawley rat plasma. The format is ADME, cell-free.
Data set [9] in a line: Clearance in dog at 0.5 mg/kg, iv. The class given is ADME, organism-based, Canis lupus familiaris. The note with it: in vivo.
Data set [10] is described as follows: Volume of distribution at steady state in dog at 0.5 mg/kg, iv. The note with it: in vivo, read-out: Vdss. The format is ADME, organism-based, Canis lupus familiaris.
Data set [11] can be described thus: Half life in dog at 0.5 mg/kg, iv. The class given is ADME, organism-based, Canis lupus familiaris. The note with it: in vivo.
Data set [12] in a line: Fraction unbound in dog plasma. The class given is ADME, cell-free, Canis lupus familiaris.
Data set [13] is described as follows: Clearance in monkey at 0.5 mg/kg, iv. The class given is ADME, organism-based, Macaca mulatta. The note with it: rhesus monkey, in vivo.
Data set [14] is described as follows: Volume of distribution at steady state in monkey at 0.5 mg/kg, iv. The note with it: rhesus monkey, in vivo, read-out: Vdss. The class given is ADME, organism-based, Macaca mulatta.
Data set [15] in a line: Half life in monkey at 0.5 mg/kg, iv. The format is ADME, organism-based, Macaca mulatta. The note with it: rhesus monkey, in vivo.
Data set [16] in a line: Fraction unbound in monkey plasma. The class given is ADME, cell-free, Macaca mulatta. The note with it: rhesus monkey.

Broadly, the IC50 is the midpoint of a concentration-inhibition curve. Broadly, the clearance is the volume of plasma or blood freed of the substance per unit of time. What is called half-life is the time in which the quantity being followed falls by half. One may read the fraction unbound as free concentration divided by total concentration. In the case of `C[C@H](Nc1cc(Cl)nc2c1cnn2[C@@H]1O[C@H](COP(=O)(O)CP(=O)(O)O)[C@@H](O)[C@H]1O)c1ccccc1F`, the IC50 is 0.00066 µM against 5'-nucleotidase, greater than 10 µM in data set [1], greater than 10 µM in [2] and greater than 10 µM in data set [3]. In addition, the clearance in [4] is 0.417 mL/min/kg; in data set [9], 0.833 mL/min/kg; in [13], 0.0417 mL/min/kg. Besides, the Vd in [5] was 0.12 L/kg; in data set [10], 1.3 L/kg; in [14], 0.099 L/kg. In addition, the half-life was 3.5 h in data set [6], 5.3 h in data set [7], 22 h in data set [11] and 27 h in [15]. In addition, the fraction unbound in [8] is 0.0017; in [12] it was 0.083; in [16], 0.0059.
On to `C[C@H](Nc1nc(Cl)nc2c1cnn2[C@@H]1O[C@H](COP(=O)(O)CP(=O)(O)O)[C@@H](O)[C@H]1O)c1ccccc1`, for which the IC50 on 5'-nucleotidase was 0.00016 µM; in data set [1], greater than 10 µM; in data set [2], greater than 10 µM; in [3], greater than 10 µM. The clearance in [4] is 1.27 mL/min/kg; in [9], 1.18 mL/min/kg; in data set [13], 0.04 mL/min/kg. The Vd in [5] worked out at 0.18 L/kg; in [10], 0.84 L/kg; in data set [14], 0.096 L/kg. In addition, the half-life in data set [6] is 2 h; in data set [7], 1.7 h; in data set [11], 13 h; in data set [15], 28 h. In addition, the results for the fraction unbound in data set [8], in [12] and in data set [16] were 0.0095, 0.187 and 0.002, respectively.
Take `C[C@H](Nc1cc(Cl)nc2c1cnn2[C@@H]1O[C@H](COP(=O)(O)CP(=O)(O)O)[C@@H](O)[C@H]1O)c1ccc(F)cc1`: the IC50 was 0.00083 µM against 5'-nucleotidase, greater than 10 µM in [1], greater than 10 µM in data set [2] and greater than 10 µM in data set [3]. Moreover, the clearance in data set [4] was 0.25 mL/min/kg; in data set [9], 0.567 mL/min/kg; in data set [13], 0.0283 mL/min/kg. In addition, the figures for the Vd in data set [5], in [10] and in data set [14] were 0.11 L/kg, 0.63 L/kg and 0.078 L/kg, respectively. The half-life in [6] was 6.5 h; in data set [7], 9.6 h; in data set [11] it was 15 h; in [15] it was 34 h. Also, the free fraction (fraction unbound) in data set [8] was 0.0016; in data set [12] it was 0.102; in data set [16], 0.0034.

The values above are taken from ChEMBL document CHEMBL4665688, “Discovery of AB680: A Potent and Selective Inhibitor of CD73” (J Med Chem, 2020).
